The values that follow come from PubChem BioAssay AID1259411 (Chemical Carcinogenesis Research Information System (CCRIS), 2018).

This series has as its system rodent carcinogenicity bioassays, tumor incidence. Description: CCRIS carcinogenicity studies. In a few lines:
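Archive of carcinogenicity, mutagenicity, tumor promotion and tumor inhibition results drawn from journals, NCI reports and other sources, expert-reviewed; covers 1985-2011 and is no longer updated.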

Calls of active or inactive are those of the source. How the calls were made is not given here.

Take `CN(C)[C@@H]1C(=O)C(C(N)=O)=C(O)[C@@]2(O)C(=O)C3=C(O)c4c(O)cccc4[C@@](C)(O)[C@H]3C[C@@H]12`: the carcinogen call was “inactive; negative” (Species: MOUSE, Strain/Sex: B6C3F1/FEMALE, Route: GAVAGE, Dose: 0, 12500, 25000 PPM IN FEED FOR 103 WK (STUDY DURATION: 104 WK), Dose: 0, 12500, 25000 PPM IN FEED FOR 103 WK (STUDY DURATION: 104 WK)); “inactive; negative” (Species: MOUSE, Strain/Sex: B6C3F1/FEMALE, Route: ORAL, Dose: 0, 12500, 25000 PPM IN DIET FOR 103 WK (STUDY DURATION: 103 WK), Dose: 0, 12500, 25000 PPM IN DIET FOR 103 WK (STUDY DURATION: 103 WK)); “inactive; negative” (Species: MOUSE, Strain/Sex: B6C3F1/MALE, Route: ORAL, Dose: 0, 12500, 25000 PPM IN DIET FOR 103 WK (STUDY DURATION: 103 WK), Dose: 0, 12500, 25000 PPM IN DIET FOR 103 WK (STUDY DURATION: 103 WK)); “inactive; negative” (Species: MOUSE, Strain/Sex: B6C3F1/MALE, Route: ORAL, Dose: 0, 12500, 25000 PPM IN FEED FOR 103 WK (STUDY DURATION: 104 WK), Dose: 0, 12500, 25000 PPM IN FEED FOR 103 WK (STUDY DURATION: 104 WK)); “inactive; negative” (Species: RAT, Strain/Sex: F344/FEMALE, Route: ORAL, Dose: 0, 12500, 25000 PPM IN DIET FOR 103 WK (STUDY DURATION: 103 WK), Dose: 0, 12500, 25000 PPM IN DIET FOR 103 WK (STUDY DURATION: 103 WK)); “inactive; negative” (Species: RAT, Strain/Sex: F344/FEMALE, Route: ORAL, Dose: 0, 12500, 25000 PPM IN FEED FOR 103 WK (STUDY DURATION: 104 WK), Dose: 0, 12500, 25000 PPM IN FEED FOR 103 WK (STUDY DURATION: 104 WK)). Moreover, the carcinogen call is “inactive; negative” (Species: RAT, Strain/Sex: F344/MALE, Route: ORAL, Dose: 0, 12500, 25000 PPM IN DIET FOR 103 WK (STUDY DURATION: 103 WK), Dose: 0, 12500, 25000 PPM IN DIET FOR 103 WK (STUDY DURATION: 103 WK)) and “inactive; negative” (Species: RAT, Strain/Sex: F344/MALE, Route: ORAL, Dose: 0, 12500, 25000 PPM IN FEED FOR 103 WK (STUDY DURATION: 104 WK), Dose: 0, 12500, 25000 PPM IN FEED FOR 103 WK (STUDY DURATION: 104 WK)).
`C=C(C)C`: the carcinogen call is “inactive; negative” (Species: MOUSE, Strain/Sex: B6C3F1/FEMALE, Route: INHALATION, Dose: 0, 500, 2000, 8000 PPM 6 HR/D 5 D/WK FOR 105 WK (STUDY DURATION: 105 WK), Dose: 0, 500, 2000, 8000 PPM 6 HR/D 5 D/WK FOR 105 WK (STUDY DURATION: 105 WK)); “inactive; negative” (Species: MOUSE, Strain/Sex: B6C3F1/MALE, Route: INHALATION, Dose: 0, 500, 2000, 8000 PPM 6 HR/D 5 D/WK FOR 105 WK (STUDY DURATION: 105 WK), Dose: 0, 500, 2000, 8000 PPM 6 HR/D 5 D/WK FOR 105 WK (STUDY DURATION: 105 WK)); “inactive; negative” (Species: RAT, Strain/Sex: F344/N/FEMALE, Route: INHALATION, Dose: 0, 500, 2000, 8000 PPM 6 HR/D 5 D/WK FOR 105 WK (STUDY DURATION: 105 WK), Dose: 0, 500, 2000, 8000 PPM 6 HR/D 5 D/WK FOR 105 WK (STUDY DURATION: 105 WK)); “equivocal” (Species: RAT, Strain/Sex: F344/N/MALE, Route: INHALATION, Dose: 0, 500, 2000;8000 PPM 6 HR/D 5 D/WK FOR 105 WK (STUDY DURATION: 105 WK), Dose: 0, 500, 2000;8000 PPM 6 HR/D 5 D/WK FOR 105 WK (STUDY DURATION: 105 WK), Tumor Site: Type of Lesion: THYROID GLAND: FOLLICULAR CELL CARCINOMA).
`CS(=O)(=O)OCCCCOS(C)(=O)=O`: the carcinogen call (Species: MOUSE, Route: INTRAVENOUS, Tumor Site: Type of Lesion: OVARIES, THYMUS GLAND) was “active; positive”.
With `CC1CN(N=O)C(=O)NC1=O` (stereo not drawn), the carcinogen call (Species: RAT, Strain/Sex: MRC-WISTAR/FEMALE, Route: ORAL, Dose: 0, 10 G TOTAL DOSE IN CITRATE BUFFER IN DRINKING WATER 5D/WK FOR 12 MO (STUDY DURATION: 2 YR)) is “inactive; negative” and the carcinogen call (Species: RAT, Strain/Sex: MRC-WISTAR/MALE, Route: ORAL, Dose: 0, 1 G TOTAL DOSE IN CITRATE BUFFER IN DRINKING WATER 5D/WK FOR 12 MO (STUDY DURATION: 2 YR)) was “inactive; negative”.
`CCC1C(c2ccc(O)cc2)=C(C)c2cc(O)ccc21` (stereo not drawn): the carcinogen call (Species: HAMSTER, Strain/Sex: SYRIAN/MALE, Route: SUBCUTANEOUS IMPLANT, Dose: 0, 20 MG IN PELLETS IMPLANTED EVERY 2.5 MO FOR 9 MO (STUDY DURATION: 9 MO), Tumor Site: Type of Lesion: KIDNEY: TUMOR) is “active; positive”.
With `COc1nc(C)nc(NC(=O)NS(=O)(=O)c2ccccc2Cl)n1`, the carcinogen call by setting is: (Species: Rat, Strain/Sex: CD/Female (50/group), Route: Oral, Dose: 0, 100, 500, 2,500 ppm in diet for 2 yr, Dose: 0, 100, 500, 2,500 ppm in diet for 2 yr) “inactive; negative (study details not given in source; purity 92-95%)”; (Species: Rat, Strain/Sex: CD/Male (50/group), Route: Oral, Dose: 0, 100, 500, 2,500 ppm in diet for 2 yr, Dose: 0, 100, 500, 2,500 ppm in diet for 2 yr) “inactive; negative (study details not given in source; purity 92-95%)”.
`O=c1c(-c2ccc(O)cc2)coc2cc(O)cc(O)c12`: the carcinogen call (Species: Rat, Strain/Sex: Sprague-Dawley/Female (50/Group), Route: Oral, Dose: During pregnancy, ingested doses for dams were ~0, 0.5, 9, and 45 mg/kg bw/day. During lactation, ingested doses for dam) is “inactive; negative”; the carcinogen call (Species: Rat, Strain/Sex: Sprague-Dawley/Female (50/Group), Route: Oral, Dose: During pregnancy, ingested doses for dams were ~0, 0.5, 9, and 45 mg/kg bw/day. During lactation, ingested doses for dam, Tumor Site: Type of Lesion: Mammary gland: adenoma and adenocarcinoma combined (13.2%, 16.3%, 22.0%, 26.0%)) is “inactive; negative. positive trend but results do not reach statistical significance (ntp”; the carcinogen call (Species: Rat, Strain/Sex: Sprague-Dawley/Female (50/Group), Route: Oral, Dose: During pregnancy, ingested doses for dams were ~0, 0.5, 9, and 45 mg/kg bw/day. During lactation, ingested doses for dam, Tumor Site: Type of Lesion: Mammary gland: adenoma and adenocarcinoma combined (16.7%, 8.0%, 16.0%, 32.7%) Pituitary gland: neoplasms (70.4%, 80.0%) was “inactive; positive but at 2 lower doses, there was a negative trend for the mammary tumors”; the carcinogen call (Species: Rat, Strain/Sex: Sprague-Dawley/Female (50/Group), Route: Oral, Dose: During pregnancy, ingested doses for dams were ~0, 0.5, 9, and 45 mg/kg bw/day. During lactation, ingested doses for dam, Tumor Site: Type of Lesion: Pituitary gland: adenoma and carcinoma combined (Overall rate 70.4%, 65.3%, 80.0%, 88.0%)) is “inactive; negative (ntp describes as equivocal)”; the carcinogen call (Species: Rat, Strain/Sex: Sprague-Dawley/Male (50/Group), Route: Oral, Dose: During pregnancy, ingested doses for dams were ~0, 0.5, 9, and 45 mg/kg bw/day. During lactation, ingested doses for dam) is “inactive; negative”.
